Structures can show the parent of a compound that is named as a salt.
Molecular target: T1, Full length human recombinant PIKFYVE (Homo sapiens, UniProt Q9Y2I7, L932S/Q1183K/Q995L/S1033A/S696N/T998S)
T1 construct: Full length human recombinant PIKFYVE; purchased Carna Biosciences (Kobe, Japan); host or cells: baculovirus expression system (insect cells)
Assay: Inhibition of PIKfyve (microfluidic electrophoresis kinase assay)
Format: biochemical
Settings: 2 nM enzyme, 1 μM PI3P, 3 h at room temperature, 12 concentrations; read-out: PIKfyve IC50
Description: Biological Example 1: Inhibition of PIKfyve
Full length human recombinant PIKFYVE expressed in baculovirus expression system as N-terminal GST-fusion protein (265 kDa) was obtained from Carna Biosciences (Kobe, Japan). The kinase substrate was prepared by mixing and sonicating fluorescently-labeled phosphatidylinositol 3-phosphate (PI3P) with phospho-L-serine (PS) at a 1:10 ratio in 50 mM HEPES buffer pH7.5.
The kinase reactions were assembled in 384-well plates (Greiner) in a total volume of […] as follows. Kinase protein was pre-diluted in an assay buffer comprising 25 mM HEPES, pH 7.5, 1 mM DTT, 2.5 mM MgCl2, and 2.5 mM MnCl2, and 0.005% Triton X-100, and dispensed into a 384-well plate (10 μL per well). Test compounds were serially pre-diluted in DMSO and added to the protein samples by acoustic dispensing (Labcyte Echo). The concentration of DMSO was equalized to 1% in all samples. All test compounds were tested at 12 concentrations. Apilimod was used as a reference compound and was tested in identical manner in each assay plate. Control samples (0%-inhibition, in the absence of inhibitor, DMSO only) and 100%-inhibition (in the absence of enzyme) were assembled in replicates of four and were used to calculate %-inhibition in the presence of compounds. The reactions were initiated by addition of 10 μL of 2× PI3P/PS substrate supplemented with ATP. The final concentration of enzyme was 2 nM, the final concentration of ATP was […], and the final concentration of PI3P/PS substrate was 1 μM (PI3P). The kinase reactions were allowed to proceed for 3 h at room temperature. Following incubation, the reactions were quenched by addition of […] of termination buffer (100 mM HEPES, pH 7.5, 0.01% Triton X-100, 20 mM EDTA). Terminated plates were analyzed on a microfluidic electrophoresis instrument (Caliper LabChip® 3000, Caliper Life Sciences/Perkin Elmer). The change in the relative fluorescence intensity of the PI(3)P substrate and PI(3,5)P product peaks was measured. The activity in each test sample was determined as the product to sum ratio (PSR): P/(S+P), where P is the peak height of the product, and S is the peak height of the substrate. Percent inhibition (Pinh) was determined using the following equation:
Pinh=(PSR0%inh−PSRcompound)/(PSR0%inh−P100%inh)*100
in which PSRcompound is the product/sum ratio in the presence of compound, PSR0%inh is the product/sum ratio in the absence of compound, and the PSR100%inh is the product/sum ratio in the absence of the enzyme. To determine the ICso of test compounds (50%-inhibition) the %-inh cdata (Pinh versus compound concentration) were fitted by a four-parameter sigmoid dose-response model using XLfit software (IDBS).

T1 sequence (Q9Y2I7 whole entry S696N/L932S/Q995L/T998S/S1033A/Q1183K): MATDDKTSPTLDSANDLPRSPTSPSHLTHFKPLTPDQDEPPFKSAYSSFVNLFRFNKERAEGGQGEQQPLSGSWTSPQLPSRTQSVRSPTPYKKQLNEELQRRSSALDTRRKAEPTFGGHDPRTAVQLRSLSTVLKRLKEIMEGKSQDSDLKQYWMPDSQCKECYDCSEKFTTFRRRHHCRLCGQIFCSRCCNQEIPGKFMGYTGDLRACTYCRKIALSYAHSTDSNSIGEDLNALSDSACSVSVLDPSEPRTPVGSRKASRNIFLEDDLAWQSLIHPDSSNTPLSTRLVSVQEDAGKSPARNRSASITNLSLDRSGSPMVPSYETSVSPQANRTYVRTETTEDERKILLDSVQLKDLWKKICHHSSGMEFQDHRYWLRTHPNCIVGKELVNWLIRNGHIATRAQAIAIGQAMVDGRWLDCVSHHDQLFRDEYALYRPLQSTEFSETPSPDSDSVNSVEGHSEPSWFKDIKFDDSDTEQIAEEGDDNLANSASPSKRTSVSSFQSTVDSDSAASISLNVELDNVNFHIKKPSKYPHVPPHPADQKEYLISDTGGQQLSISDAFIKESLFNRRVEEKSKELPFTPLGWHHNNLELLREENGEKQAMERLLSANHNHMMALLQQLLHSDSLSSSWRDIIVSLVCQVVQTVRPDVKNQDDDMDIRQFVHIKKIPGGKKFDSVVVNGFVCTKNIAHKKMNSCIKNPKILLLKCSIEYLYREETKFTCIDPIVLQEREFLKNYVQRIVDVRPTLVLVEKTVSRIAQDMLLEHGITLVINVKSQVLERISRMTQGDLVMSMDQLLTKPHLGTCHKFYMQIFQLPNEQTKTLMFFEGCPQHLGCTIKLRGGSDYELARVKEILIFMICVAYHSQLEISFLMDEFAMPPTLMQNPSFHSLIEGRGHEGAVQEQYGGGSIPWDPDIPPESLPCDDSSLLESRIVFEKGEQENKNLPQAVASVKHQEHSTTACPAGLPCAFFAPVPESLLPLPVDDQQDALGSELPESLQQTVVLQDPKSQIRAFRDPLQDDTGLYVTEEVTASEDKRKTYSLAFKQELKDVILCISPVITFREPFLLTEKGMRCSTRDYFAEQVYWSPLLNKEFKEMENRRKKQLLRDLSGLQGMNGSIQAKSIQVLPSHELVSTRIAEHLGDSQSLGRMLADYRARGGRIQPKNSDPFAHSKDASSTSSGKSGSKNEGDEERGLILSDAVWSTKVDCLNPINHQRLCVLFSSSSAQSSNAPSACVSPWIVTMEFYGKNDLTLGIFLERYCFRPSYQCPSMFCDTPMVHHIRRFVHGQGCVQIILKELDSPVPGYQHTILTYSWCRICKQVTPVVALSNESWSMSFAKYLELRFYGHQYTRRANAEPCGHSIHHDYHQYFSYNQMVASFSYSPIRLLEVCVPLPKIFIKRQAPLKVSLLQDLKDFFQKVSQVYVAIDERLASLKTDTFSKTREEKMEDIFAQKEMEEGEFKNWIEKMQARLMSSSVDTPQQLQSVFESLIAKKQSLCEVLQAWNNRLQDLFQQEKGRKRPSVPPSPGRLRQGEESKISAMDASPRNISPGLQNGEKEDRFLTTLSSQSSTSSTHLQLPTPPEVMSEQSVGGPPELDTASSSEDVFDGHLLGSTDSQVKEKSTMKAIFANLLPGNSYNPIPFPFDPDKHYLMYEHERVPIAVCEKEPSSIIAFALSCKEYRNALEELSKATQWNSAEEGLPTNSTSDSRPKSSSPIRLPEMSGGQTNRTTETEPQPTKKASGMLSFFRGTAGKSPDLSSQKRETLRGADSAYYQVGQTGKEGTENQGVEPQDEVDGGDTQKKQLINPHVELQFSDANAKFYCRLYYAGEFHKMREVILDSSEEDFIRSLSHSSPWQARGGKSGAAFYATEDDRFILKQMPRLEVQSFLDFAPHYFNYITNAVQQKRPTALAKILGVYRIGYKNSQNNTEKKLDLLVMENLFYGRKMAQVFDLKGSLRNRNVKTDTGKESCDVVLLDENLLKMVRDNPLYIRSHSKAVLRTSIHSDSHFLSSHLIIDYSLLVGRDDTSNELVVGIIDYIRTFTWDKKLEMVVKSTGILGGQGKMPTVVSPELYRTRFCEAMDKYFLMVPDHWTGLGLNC

Structure (SMILES) | IC50 [nM]
CN(C)CCOc1ccc2c(n1)oc1c(N3CCOCC3)nc(Nc3cc(-c4ccccc4)n[nH]3)nc12 [Example 4, 7-(2-(Dimethylamino)ethoxy)-4-morpholino-N-(3-phenyl-1H-pyrazol-5-yl)pyrido[3′,2′:4,5]furo[3,2-d]pyrimidin-2-amine hydrochloride] | 68
CN1CCN(CCCOc2ccc3c(n2)oc2c(N4CCOCC4)nc(Nc4cc(-c5ccccc5)n[nH]4)nc23)CC1 [Example 29, 7-(3-(4-methylpiperazin-1-yl)propoxy)-4-morpholino-N-(3-phenyl-1H-pyrazol-5-yl)pyrido[3′,2′:4,5]furo[3,2-d]pyrimidin-2-amine hydrochloride] | 3
c1cnc(Nc2nc(N3CCOCC3)c3oc4ncccc4c3n2)nc1 [Example 42, 4-morpholino-N-(pyrimidin-2-yl)pyrido[3′,2′:4,5]furo[3,2-d]pyrimidin-2-amine] | > 10000
c1ccc(-c2cc(Nc3nc(N4CCOCC4)c4oc5nc(OCCCN6CCOCC6)ccc5c4n3)[nH]n2)cc1 [Example 25, 4-morpholino-7-(3-morpholinopropoxy)-N-(3-phenyl-1H-pyrazol-5-yl)pyrido[3′,2′:4,5]furo[3,2-d]pyrimidin-2-amine hydrochloride] | 14
O=C(Nc1nc(N2CCOCC2)c2oc3ncccc3c2n1)c1ccccc1 [Example 3] | > 10000
COc1ccc2c(n1)oc1c(N3CCOCC3)nc(Nc3cc(-c4ccccc4)n[nH]3)nc12 [Example 30, 7-methoxy-4-morpholino-N-(3-phenyl-1H-pyrazol-5-yl)pyrido[3′,2′:4,5]furo[3,2-d]pyrimidin-2-amine hydrochloride] | 163
c1ccc(-c2cc(Nc3nc(N4CCOCC4)c4oc5nc(OCCN6CCCC6)ccc5c4n3)[nH]n2)cc1 [Example 26, 4-morpholino-N-(3-phenyl-1H-pyrazol-5-yl)-7-(2-(pyrrolidin-1-yl)ethoxy)pyrido[3′,2′:4,5]furo[3,2-d]pyrimidin-2-amine hydrochloride] | 82
c1cnc2oc3c(N4CCOCC4)nc(Nc4ccncn4)nc3c2c1 [Example 41, 4-morpholino-N-(pyrimidin-4-yl)pyrido[3′,2′:4,5]furo[3,2-d]pyrimidin-2-amine] | > 10000
FC(F)(F)Oc1cccc(-c2cc(Nc3nc(N4CCOCC4)c4oc5ncccc5c4n3)[nH]n2)c1 [Example 35, 4-morpholino-N-(3-(3-(trifluoromethoxy)phenyl)-1H-pyrazol-5-yl)pyrido[3′,2′:4,5]furo[3,2-d]pyrimidin-2-amine hydrochloride] | 1540
c1cnc2oc3c(N4CCOCC4)ncnc3c2c1 [Example 52, 4-Morpholinopyrido[3′,2′:4,5]furo[3,2-d]pyrimidine] | > 10000
CN(C)CCCOc1ccc2c(n1)oc1c(N3CCOCC3)nc(Nc3cc(-c4ccccc4)n[nH]3)nc12 [Example 23, 7-(3-(dimethylamino)propoxy)-4-morpholino-N-(3-phenyl-1H-pyrazol-5-yl)pyrido[3′,2′:4,5]furo[3,2-d]pyrimidin-2-amine hydrochloride] | 20
c1ccc(-c2cccc(Nc3nc(N4CCOCC4)c4oc5ncccc5c4n3)c2)cc1 [Example 45, N-([1,1′-biphenyl]-3-yl)-4-morpholinopyrido[3′,2′:4,5]furo[3,2-d]pyrimidin-2-amine] | 3980
c1ccc(-c2ccc(Nc3nc(N4CCOCC4)c4oc5ncccc5c4n3)cc2)cc1 [Example 44, N-([1,1′-biphenyl]-4-yl)-4-morpholinopyrido[3′,2′:4,5]furo[3,2-d]pyrimidin-2-amine] | 356
c1ccc(CNc2nc(N3CCOCC3)c3oc4ncccc4c3n2)cc1 [Example 2, N-Benzyl-4-morpholinopyrido[3′,2′:4,5]furo[3,2-d]pyrimidin-2-amine] | > 10000

The next lines start with the values.

IC50 [nM] | Structure (SMILES)
5900 | FC(F)(F)c1cc(Nc2nc(N3CCOCC3)c3oc4ncccc4c3n2)[nH]n1 [Example 57, 4-morpholino-N-(3-(trifluoromethyl)-1H-pyrazol-5-yl)pyrido[3′,2′:4,5]furo[3,2-d]pyrimidin-2-amine hydrochloride]
261 | Cc1cccc(-c2cc(Nc3nc(N4CCOCC4)c4oc5ncccc5c4n3)[nH]n2)n1 [Example 33, N-(3-(6-methylpyridin-2-yl)-1H-pyrazol-5-yl)-4-morpholinopyrido[3′,2′:4,5]furo[3,2-d]pyrimidin-2-amine hydrochloride]
2600 | c1cnc2oc3c(N4CCOCC4)nc(Nc4cc(CC5CC5)n[nH]4)nc3c2c1 [Example 54, N-(3-(cyclopropylmethyl)-1H-pyrazol-5-yl)-4-morpholinopyrido[3′,2′:4,5]furo[3,2-d]pyrimidin-2-amine hydrochloride]
251 | c1ccc(-c2cc(Nc3nc(N4CCOCC4)c4oc5ncccc5c4n3)[nH]n2)nc1 [Example 6, 4-Morpholino-N-(3-(pyridin-2-yl)-1H-pyrazol-5-yl)pyrido[3′,2′:4,5]furo[3,2-d]pyrimidin-2-amine hydrochloride]
129 | Clc1cccc(-c2cc(Nc3nc(N4CCOCC4)c4oc5ncccc5c4n3)[nH]n2)c1 [Example 17, N-(3-(3-chlorophenyl)-1H-pyrazol-5-yl)-4-morpholinopyrido[3′,2′:4,5]furo[3,2-d]pyrimidin-2-amine hydrochloride]
1290 | c1cnc2oc3c(N4CCOCC4)nc(Nc4cc(C5CCCC5)n[nH]4)nc3c2c1 [Example 59, N-(3-cyclopentyl-1H-pyrazol-5-yl)-4-morpholinopyrido[3′,2′:4,5]furo[3,2-d]pyrimidin-2-amine hydrochloride]
2180 | Fc1ccc(-c2cc(Nc3nc(N4CCOCC4)c4oc5ncccc5c4n3)[nH]n2)cc1F [Example 19, N-(3-(3,4-difluorophenyl)-1H-pyrazol-5-yl)-4-morpholinopyrido[3′,2′:4,5]furo[3,2-d]pyrimidin-2-amine hydrochloride]
37 | c1csc(-c2cc(Nc3nc(N4CCOCC4)c4oc5ncccc5c4n3)[nH]n2)c1 [Example 60, 4-morpholino-N-(3-(thiophen-2-yl)-1H-pyrazol-5-yl)pyrido[3′,2′:4,5]furo[3,2-d]pyrimidin-2-amine hydrochloride]
831 | c1ccc(Cc2cc(Nc3nc(N4CCOCC4)c4oc5ncccc5c4n3)[nH]n2)cc1 [Example 58, N-(3-benzyl-1H-pyrazol-5-yl)-4-morpholinopyrido[3′,2′:4,5]furo[3,2-d]pyrimidin-2-amine hydrochloride]
1090 | c1cncc(-c2cc(Nc3nc(N4CCOCC4)c4oc5ncccc5c4n3)[nH]n2)c1 [Example 31, 4-morpholino-N-(3-(pyridin-3-yl)-1H-pyrazol-5-yl)pyrido[3′,2′:4,5]furo[3,2-d]pyrimidin-2-amine hydrochloride]
303 | COc1cccc(-c2cc(Nc3nc(N4CCOCC4)c4oc5ncccc5c4n3)[nH]n2)c1 [Example 34, N-(3-(3-methoxyphenyl)-1H-pyrazol-5-yl)-4-morpholinopyrido[3′,2′:4,5]furo[3,2-d]pyrimidin-2-amine hydrochloride]
515 | Cc1ccccc1-c1cc(Nc2nc(N3CCOCC3)c3oc4ncccc4c3n2)[nH]n1 [Example 48, 4-morpholino-N-(3-(o-tolyl)-1H-pyrazol-5-yl)pyrido[3′,2′:4,5]furo[3,2-d]pyrimidin-2-amine]
129 | Fc1cccc(-c2cc(Nc3nc(N4CCOCC4)c4oc5ncccc5c4n3)[nH]n2)c1 [Example 16, N-(3-(3-fluorophenyl)-1H-pyrazol-5-yl)-4-morpholinopyrido[3′,2′:4,5]furo[3,2-d]pyrimidin-2-amine hydrochloride]
473 | Fc1ccc(-c2cc(Nc3nc(N4CCOCC4)c4oc5ncccc5c4n3)[nH]n2)cc1 [Example 1, N-(3-(4-Fluorophenyl)-1H-pyrazol-5-yl)-4-morpholinopyrido[3′,2′:4,5]furo[3,2-d]pyrimidin-2-amine hydrochloride]
2090 | c1cnc2oc3c(N4CCOCC4)nc(Nc4cc(C5CC5)n[nH]4)nc3c2c1 [Example 53, N-(3-cyclopropyl-1H-pyrazol-5-yl)-4-morpholinopyrido[3′,2′:4,5]furo[3,2-d]pyrimidin-2-amine hydrochloride]

Reference: patent US20230038929A1, “Fused Tricyclic Heterocyclic Compounds and Uses Thereof” (Verge Analytics, Inc., priority 2019, published 2023)
